Broadly, the pKa is the pH at which an ionisable group is half protonated. A low value points to a group that gives up its proton readily.

The values below come from patent US8507677B2, “Fluorescent probe” (The University of Tokyo, priority 2007, dated 2013).

A short description of the series: pKa values of pH probes (control of pKa by changing structure). Type of series: physicochemical. The note with it: pH probe. The text has this: By using the pH probe described in the present invention, change of pH can be detected in a range including pKa of the compound according to the fluorescence ratio method or the absorbance ratio method. Compounds 1 to 5 have different pKa values, and accordingly, pH ranges suitable for the detection are different among them. Therefore, a pH probe suitable for a pH range desired to be detected can be chosen and used by utilizing the difference. Similarly, by suitably choosing R^3, R^4 and/or R^5 in the general formula (I), or R^13, R^14 and/or R^15 in the general formula (IA), a pH probe having a desired pKa and thus suitable for measurement of a desired pH range can be designed and provided.
Turning to `CN1CCN(C2=C(/C=C/C3=[N+](C)c4ccccc4C3(C)C)CCC/C2=C\C=C2\N(C)c3ccccc3C2(C)C)CC1` [Compound 4], the pKa amounted to 6.8.

`CN(C)CCN(C)C1=C(/C=C/C2=[N+](C)c3ccccc3C2(C)C)CCC/C1=C\C=C1\N(C)c2ccccc2C1(C)C` [Compound 2] had a pKa of 8.1.

With `CCN(CC)CCN(C)C1=C(/C=C/C2=[N+](C)c3ccccc3C2(C)C)CCC/C1=C\C=C1\N(C)c2ccccc2C1(C)C` [Compound 3], the pKa was determined as 8.7.

For the compound `CN1/C(=C/C=C2\CCCC(/C=C/C3=[N+](C)c4ccccc4C3(C)C)=C2N2CCN(c3ccccc3)CC2)C(C)(C)c2ccccc21` [Compound 5], the pKa came out at 2.1.

With `CN1/C(=C/C=C2\CCCC(/C=C/C3=[N+](C)c4ccccc4C3(C)C)=C2N2CCN(Cc3ccccc3)CC2)C(C)(C)c2ccccc21` [Compound 1], the pKa turned out to be 5.5.
